Measured values from patent US9328118B2, “Nitrogen-containing bicyclic aromatic heterocyclic compound” (ASTELLAS PHARMA INC., priority 2012, dated 2016).
Counter-ions that a name gives are not always drawn. Like-named read-outs stand apart in the source and are kept apart here.

Legend:
human cathepsin S = human cathepsin S (Homo sapiens (Human), UniProt P25774); assay: In vitro human cathepsin S inhibitory activity (VVR-AMC fluorescence); format: biochemical; conditions: human cathepsin S enzyme, substrate VVR-AMC 40 μM, pH 4.5, 37° C.; read-out: IC50 value of the human cathepsin S inhibitory activity (Data 1)
Protocol: Test Example 1 Measurement of a In Vitro Human Cathepsin S Inhibitory Activity
5 μL of a human cathepsin S enzyme (R&D1183-CY-010) was added to a 96-well plate so as to be 20 ng/well. […] A reaction rate at the time of not adding an enzyme in which the test compound was not added and a reaction rate at the time of adding an enzyme in which the test compound was not added were set to 100% inhibition and 0% inhibition, respectively, then, an inhibition rate at each concentration was determined, and IC50 values were calculated by a linear regression method. In the Table, Ex represents Example compound No., and Data 1 represents an IC50 value (nM) of the human cathepsin S inhibitory activity.

[1] = tested on: MHC class II expression in B220 positive B cells of mouse spleen cells; assay: In vitro MHC class II expression inhibitory effect using mouse spleen cells (LPS-stimulated B cells, flow cytometry); format: cell-based, C57BL/6 mice; conditions: B-cell, read-out: IC50 value of MHC class II expression inhibition (Data 2)
Protocol: Test Example 2 Evaluation of In Vitro MHC Class II Expression Inhibitory Effect Using Mouse Spleen Cells (Cell Evaluation System)
In antigen-presenting cells, the inhibition of cathepsin S inhibits the expression of MHC class II molecules. […] For an increased expression of MI-IC class II in B cells, the inhibitory effect of the compound represented by formula (I) was examined.
First, spleen cells collected from C57BL/6 mice were seeded in a 96-well plate so as to be a 1×10^5 cells/well, then, 5-fold dilution of 10 mM DMSO solution of the test compound was serially performed with RPMI 1640 medium (including 10% fetal bovine serum (FCS), 5×10^−5 M 2-mercaptoethanol, 50 IU/mL penicillin and 50 μg/mL streptomycin) nine times such that the final concentration becomes 0.026 nM to 10 μM, and the resultant products were added thereto (the final DMSO concentration was 0.1%). At the same time, LPS (Sigma L4005) was added to the wells such that the final concentration becomes 2 μg/mL, and culture was performed at 37° C. for 48 hours in 5% CO2. After culturing, the cells were stained at 4° C. for 20 minutes with PE-labeled streptavidin (BD BIOSCIENCE 554061) and biotin-labeled YAe antibody (EBIOSCIENCE 13-5741-85) together with FITC-labeled anti-mouse B220 antibody (BD BIOSCIENCE 553088), and an expression level (fluorescence intensity of YAe-biotin/streptavidin-PE) of MHC class II to which Ea peptide in B220 positive B cells was bonded was measured using a flow cytometry system (Guava EasyCyte Plus System, manufactured by Millipore Corporation). A value at the time of unstimulation of LPS in which the test compound was not added and a value at the time of stimulation of LPS in which the test compound was not added were set to 100% inhibition and 0% inhibition, respectively, then, an inhibition rate at each concentration was determined, and IC50 values were calculated by a linear regression method. In the Table, Ex represents Example compound No., and Data 2 represents an IC50 value (nM).

[2] = tested on: OVA specific IgG antibody titer; assay: Antibody production inhibitory effect in mouse OVA-induced antibody production model; format: in vivo, BALB/c male mice; conditions: oral 1 mg/kg daily Day 0 to Day 14, titer at Day 14
Protocol: Test Example 4 Evaluation of Antibody Production Inhibitory Effect in Mouse OVA-Induced Antibody Production Model
Evaluation of an antibody production inhibitory effect in vivo was performed.
The BALB/c male mice were sensitized by intraperitoneal administration of 200 μL of an emulsion consisting of 100 μg of ovalbumin (OVA) (SIGMA A5503) and 100 μL of a complete Freund's adjuvant (CFA) (DIFCO 231131) (Day 0), and a week after that, the mice were sensitized by intraperitoneal administration of 200 μL of an emulsion consisting of 50 μg of OVA and 100 μL of an incomplete Freund's adjuvant (IFA) (DIFCO 263910) (Day 7). The test compound dissolved in a vehicle (30% propylene glycol solvent (propylene glycol:HCO40:Tween 80=4:2:1)/HCl (2 equivalents with respect to the test compound)/water) was orally administered (dose: 0.3 mg/kg, 1 mg/kg, or 3 mg/kg) at 10 mL/kg/day from Day 0 to Day 14, and an OVA specific IgG antibody titer in blood plasma at Day 14 was evaluated. Measurement of antibody titer was carried out using a blood plasma sample which was diluted 40,000 times by an ELISA method, and the antibody titer was represented as a ratio with respect to control blood plasma. An antibody titer of a mouse to which the vehicle was orally administered at 10 mL/kg/day from Day 0 to Day 14 was set to 0% inhibition, an antibody titer of a normal mouse to which the vehicle was orally administered at 10 mL/kg/day from Day 0 to Day 14 and which was not sensitized with OVA was set to 100% inhibition, and the inhibition rate at the time of the test compound administration was calculated.

[3] = tested on: MHC class II expression in peripheral blood B cells; assay: Ex vivo MHC class II expression inhibitory effect using mouse peripheral blood after oral administration; format: in vivo, C57BL/6 mice; conditions: oral 0.3 mg/kg, blood collected after 3 hours, LPS 15 hours
Protocol: Test Example 3 Evaluation of Ex Vivo MHC Class II Expression Inhibitory Effect Using Mouse Peripheral Blood
The expression inhibitory effect of MHC class II molecules was evaluated in an ex vivo system.
The test compound was orally administered into C57BL/6mice, and the inhibitory effect with respect to the increased expression of MHC class II in B cells in peripheral blood after oral administration was examined. That is, 10 mL/kg of the test compound dissolved in a vehicle (30% propylene glycol solvent (propylene glycol:cured castor oil (HCO40):Tween 80=4:2:1)/HCl (2 equivalents with respect to the test compound)/water) was orally administered (dose: 0.1 mg/kg, 0.3 mg/kg, 1 mg/kg, or 3 mg/kg) to a C57BL/6mice, and the peripheral blood was collected after 3 hours. 10 μL of RPMI 1640 medium (including 5×10^−5 M of 2-mercaptoethanol, 50 IU/mL of penicillin, and 50 μg/mL of streptomycin) or 10 μL of LPS adjusted with the medium such that the final concentration becomes 100 μg/mL was added to 90 μL of the peripheral blood, and culture was performed at 37° C. for 15 hours in 5% CO2. After culturing, the cells were stained at 4° C. for 30 minutes with FITC-labeled anti-mouse I-A/I-E antibody (BD BIOSCIENCE 553623) and PE-labeled B220 antibody (BD BIOSCIENCE 553090), and hemolysis and fixation were performed at 37° C. for 10 minutes using a buffer (BD BIOSCIENCE Phosflow Lyse/Fix Buffer 558049). After washing, using a flow cytometry system (FACSCanto II, manufactured by BD BIOSCIENCE), an expression level of MHC class II on a B220 positive B cell surface was measured by using a fluorescence intensity of FITC (hereinafter, referred to as MFI) as an indicator. The difference between a MFI at the time of stimulation of LPS and a MFI at the time of unstimulation of LPS was set to a ΔMFI, a ΔMFI of a mouse in which 10 mL/kg of only vehicle was administered was set to 1, and the inhibition rate of ΔMFI by the test compound administration was calculated.

[4] = C57BL/6 spleen cells, LPS 2 μg/mL, 48 hours, B220 positive B cells

Sequence of human cathepsin S (P25774 115-331): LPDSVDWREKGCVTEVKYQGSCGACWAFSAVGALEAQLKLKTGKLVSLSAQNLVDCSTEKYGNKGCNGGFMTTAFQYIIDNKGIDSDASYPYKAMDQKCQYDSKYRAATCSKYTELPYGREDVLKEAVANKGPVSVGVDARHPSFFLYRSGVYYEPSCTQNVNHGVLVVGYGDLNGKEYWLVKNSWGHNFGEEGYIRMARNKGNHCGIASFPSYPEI

Structure (SMILES)	IC50 [1, 4] [nM]	other results
Cl.Cn1ccc2c(-c3ccc(OCCC4CCNCC4)c(C(F)(F)F)c3)nc(C#N)nc21 [Example 2, 7-methyl-4-{4-[2-(piperidin-4-yl)ethoxy]-3-(trifluoromethyl)phenyl}-7H-pyrrolo[2,3-d]pyrimidine-2-carbonitrile monohydrochloride]	1.2	IC50 (human cathepsin S): 2.3 nM; inhibition of OVA specific IgG antibody titer in blood plasma [2]: 61±10%
CN(C)C(=O)CN1CCC(CCOc2ccc(-c3nc(C#N)nc4c3ccn4C)cc2C(F)(F)F)CC1 [Example 3, 2-(4-{2-[4-(2-cyano-7-methyl-7H-pyrrolo[2,3-d]pyrimidin-4-yl)-2-(trifluoromethyl)phenoxy]ethyl}piperidin-1-yl)-N,N-dimethylacetamide]	1	IC50 (human cathepsin S): 2.6 nM
CN1CCC[C@@H]1C(=O)N1CCC(CCOc2ccc(-c3nc(C#N)nc4c3ncn4C)cc2C(F)(F)F)CC1 [Example 6, 9-methyl-6-[4-{2-[1-(1-methyl-D-prolyl)piperidin-4-yl]ethoxy}-3-(trifluoromethyl)phenyl]-9H-purine-2-carbonitrile]	0.69	IC50 (human cathepsin S): 3.4 nM
CN1CCC[C@H]1C(=O)N1CCC(CCOc2ccc(-c3nc(C#N)nc4c3ccn4CC3CCCO3)cc2C(F)(F)F)CC1 (stereo partly drawn) [Example 15, 4-[4-{2-[1-(1-methyl-L-prolyl)piperidin-4-yl]ethoxy}-3-(trifluoromethyl)phenyl]-7-(tetrahydrofuran-2-ylmethyl)-7H-pyrrolo[2,3-d]pyrimidine-2-carbonitrile monohydrochloride]	2.1	IC50 (human cathepsin S): 3.4 nM
Cl.Cn1cnc2c(-c3cnc(OCCC4CCNCC4)c(C(F)(F)F)c3)nc(C#N)nc21 [Example 28, 9-methyl-6-{6-[2-(piperidin-4-yl)ethoxy]-5-(trifluoromethyl)pyridin-3-yl}-9H-purine-2-carbonitrile monohydrochloride]	–	inhibition rate of ΔMFI (increased expression of MHC class II in peripheral blood B cells) [3]: 40±1.4%; inhibition of OVA specific IgG antibody titer in blood plasma [2]: 83±2%
CN1CCC(NC(=O)Cn2ccc3c(-c4ccc(OCCC5CCOCC5)c(C(F)(F)F)c4)nc(C#N)nc32)CC1 [Example 47]	–	IC50 (human cathepsin S): 2.1 nM; IC50 ([1]; 48 h): 2 nM
CN(C)C(=O)CN1CCC(CCOc2ccc(-c3nc(C#N)nc4c3ccn4CC3CCOC3)cc2C(F)(F)F)CC1 (stereo not shown) [Example 66]	2.1	–
CCN1CCC(CCOc2ccc(-c3nc(C#N)nc4c3ncn4CC3CCOC3)cc2C(F)(F)F)CC1 (stereo not shown) [Example 70]	0.76	–
CCN1CCC(CCOc2ncc(-c3nc(C#N)nc4c3ncn4CC3CCOC3)cc2C(F)(F)F)CC1 (stereo not shown) [Example 71]	1.3	–
CN(C)C(=O)CN1CCC(CCOc2ccc(-c3nc(C#N)nc4c3ncn4C)cc2C(F)(F)F)CC1 [Example 72]	0.73	–
CN1CCC[C@H]1C(=O)N1CCC(CCOc2ccc(-c3nc(C#N)nc4c3ncn4CC3CCOC3)cc2C(F)(F)F)CC1 (stereo partly shown) [Example 77]	1.5	IC50 (human cathepsin S): 2.7 nM
CN1CCC[C@H]1C(=O)N1CCC(CCOc2ncc(-c3nc(C#N)nc4c3ncn4CC3CCOC3)cc2C(F)(F)F)CC1 (stereo partly shown) [Example 79]	2.5	–

Second part, led by results:

IC50 [1, 4] [nM]	Structure (SMILES)	other results
2.3	CCN1CCC(CCOc2ccc(-c3nc(C#N)nc4c3ccn4CC3CCCO3)cc2C(F)(F)F)CC1 (stereo not shown) [Example 88]	–
0.91	CN1CCC[C@H]1C(=O)N1CCC(COc2ccc(-c3nc(C#N)nc4c3ccn4CC3CCOC3)cc2C(F)(F)F)CC1 (stereo partly shown) [Example 105]	–
3.2	CCN1CCC(COc2ccc(-c3nc(C#N)nc4c3ccn4CC3CCOC3)cc2C(F)(F)F)CC1 (stereo not shown) [Example 106]	–
0.91	CCN1CCC(CCOc2ccc(-c3nc(C#N)nc4c3ccn4CCO)cc2C(F)(F)F)CC1 [Example 110]	–
1.8	Cn1ccc2c(-c3cnc(OCCC4CCNCC4)c(C(F)(F)F)c3)nc(C#N)nc21 [Example 116]	–
1	Cn1cnc2c(-c3ccc(OCCC4CCN(CC(=O)N5CCC(C#N)CC5)CC4)c(C(F)(F)F)c3)nc(C#N)nc21 [Example 120]	–
0.87	Cn1cnc2c(-c3ccc(OCCC4CCN(CC(=O)N5CC[C@H](F)C5)CC4)c(C(F)(F)F)c3)nc(C#N)nc21 [Example 122]	–
0.89	Cn1ccc2c(-c3cnc(OCC4CCN(C(=O)C5CCN(CC(C)(C)O)CC5)CC4)c(C(F)(F)F)c3)nc(C#N)nc21 [Example 135, 4-{6-[(1-{[1-(2-hydroxy-2-methylpropyl)piperidin-4-yl]carbonyl}piperidin-4-yl)methoxy]-5-(trifluoromethyl)pyridin-3-yl}-7-methyl-7H-pyrrolo[2,3-d]pyrimidine-2-carbonitrile]	–
0.65	Cn1cnc2c(-c3cnc(OCCC4CCN(C5CCC5)CC4)c(C(F)(F)F)c3)nc(C#N)nc21 [Example 141]	–
0.62	CN1CCC[C@@H]1C(=O)N1CC[C@@H](OCCOc2ncc(-c3nc(C#N)nc4c3ccn4C)cc2C(F)(F)F)C1 [Example 158]	inhibition rate of ΔMFI (increased expression of MHC class II in peripheral blood B cells) [3]: 59±1.5%
